# System: NCI-H1155 cells
# Experiment: NSCLC cell viability, CellTiter-Glo, NCI-H1155 cells
# Type: cell-based
# Conditions: Homo sapiens, NCI-H1155, 72 h, read-out: Cell viability classification (NCI-H1155)
row,Structure (SMILES),IC50 [nM]
1,"O=C1CCC(N2Cc3cc(C(=O)N4Cc5c(F)ccc(OC(F)(F)F)c5C4)ccc3C2=O)C(=O)N1 (centres unmarked) [Example 185, 3-(5-(4-fluoro-7-(trifluoromethoxy)isoindoline-2-carbonyl)-1-oxoisoindolin-2-yl)piperidine-2,6-dione]",100 to 1000

# Same assay, conditions: Homo sapiens; NCI-H1155 cells, CellTiter-Glo, 72 hours of treatment; read-out: Cell viability classification (NCI-H1155)
row,Structure (SMILES),IC50 [nM]
1,"O=C1CCC(N2Cc3cc(C(=O)N4CC5(CCOC5)C4)ccc3C2=O)C(=O)N1 (centres unmarked) [Example 187, 3-(1-oxo-5-(6-oxa-2-azaspiro[3.4]octane-2-carbonyl)isoindolin-2-yl)piperidine-2,6-dione]",> 1000
2,"O=C1CCC(N2Cc3cc(C(=O)N4CC5(C4)CC(F)(c4ccc(F)cc4)C5)ccc3C2=O)C(=O)N1 (centres unmarked) [Example 168, 3-(5-(6-fluoro-6-(4-fluorophenyl)-2-azaspiro[3.3]heptane-2-carbonyl)-1-oxoisoindolin-2-yl)piperidine-2,6-dione]",100 to 1000
3,"O=C1CCC(N2Cc3cc(C(=O)NC4CC5(C=C(c6ccc(OC(F)(F)F)cc6)C5)C4)ccc3C2=O)C(=O)N1 (centres unmarked) [Example 213, 2-(2,6-dioxopiperidin-3-yl)-1-oxo-N-(6-(4-(trifluoromethoxy)phenyl)spiro[3.3]hept-5-en-2-yl)isoindoline-5-carboxamide]",100 to 1000
4,"N#Cc1ccc(C2=CC3(C2)CC(NC(=O)c2ccc4c(c2)CN(C2CCC(=O)NC2=O)C4=O)C3)cc1 (centres unmarked) [Example 216, N-(6-(4-cyanophenyl)spiro[3.3]hept-5-en-2-yl)-2-(2,6-dioxopiperidin-3-yl)-1-oxoisoindoline-5-carboxamide]",100 to 1000
5,"O=C1CCC(c2nc3cc(COC(=O)Nc4ccc(OC(F)(F)F)cc4F)ccc3o2)C(=O)N1 (centres unmarked) [Example 223, (2-(2,6-dioxopiperidin-3-yl)benzo[d]oxazol-5-yl)methyl (2-fluoro-4-(trifluoromethoxy)phenyl)carbamate]",100 to 1000
6,"O=C1CCC(N2Cc3cc(C(=O)N4CC5(CNC5)c5ccc(F)cc54)ccc3C2=O)C(=O)N1 (centres unmarked) [Example 154, 3-(5-(6′-fluorospiro[azetidine-3,3′-indoline]-1′-carbonyl)-1-oxoisoindolin-2-yl)piperidine-2,6-dione]",> 1000
7,"O=C1CCC(N2Cc3cc(C(=O)N4CCC5(CCC(F)(F)CC5)C4)ccc3C2=O)C(=O)N1 (centres unmarked) [Example 190, 3-(5-(8,8-difluoro-2-azaspiro[4.5]decane-2-carbonyl)-1-oxoisoindolin-2-yl)piperidine-2,6-dione]",> 1000
8,"O=C1CCC(c2nc3ccc(C(=O)N4CCc5ccccc5C4)cc3o2)C(=O)N1 (centres unmarked) [Example 146, 3-(6-(1,2,3,4-tetrahydroisoquinoline-2-carbonyl)benzo[d]oxazol-2-yl)piperidine-2,6-dione]",100 to 1000
9,"O=C1CCC(c2nc3cc(COC(=O)Nc4cc(Cl)ccc4F)ccc3o2)C(=O)N1 (centres unmarked) [Example 224, (2-(2,6-dioxopiperidin-3-yl)benzo[d]oxazol-5-yl)methyl (5-chloro-2-fluorophenyl)carbamate]",100 to 1000
10,"O=C1CCC(N2Cc3cc(C(=O)N4CC(F)(c5cccc(F)c5)C4)ccc3C2=O)C(=O)N1 (centres unmarked) [Example 191, 3-(5-(3-fluoro-3-(3-fluorophenyl)azetidine-1-carbonyl)-1-oxoisoindolin-2-yl)piperidine-2,6-dione]",100 to 1000
11,"Cc1ccc2c(c1F)CN(C(=O)c1ccc3c(c1)CN(C1CCC(=O)NC1=O)C3=O)C2 (centres unmarked) [Example 149, 3-(5-(4-fluoro-5-methylisoindoline-2-carbonyl)-1-oxoisoindolin-2-yl)piperidine-2,6-dione]",10 to 100

# Continued, values first:
row,IC50 [nM],Structure (SMILES)
1,> 1000,"O=C1CCC(c2nc3ccc(C(=O)N4CC5(CCC(C(F)(F)F)C5)C4)cc3o2)C(=O)N1 (centres unmarked) [Example 252, 3-(6-(6-(trifluoromethyl)-2-azaspiro[3.4]octane-2-carbonyl)benzo[d]oxazol-2-yl)piperidine-2,6-dione]"
2,> 1000,"O=C1CCC(N2Cc3cc(C(=O)N4CC5(COC5)C4)ccc3C2=O)C(=O)N1 (centres unmarked) [Example 188, 3-(1-oxo-5-(2-oxa-6-azaspiro[3.3]heptane-6-carbonyl)isoindolin-2-yl)piperidine-2,6-dione]"
3,> 1000,"COc1ccc(C2CC3(C2)CN(C(=O)c2ccc4c(c2)CN(C2CCC(=O)NC2=O)C4=O)C3)cc1 (centres unmarked) [Example 233, 3-(5-(6-(4-methoxyphenyl)-2-azaspiro[3.3]heptane-2-carbonyl)-1-oxoisoindolin-2-yl)piperidine-2,6-dione]"
4,100 to 1000,"O=C1CCC(N2Cc3cc(C(=O)N4CC(c5ccc(F)cc5)C4)ccc3C2=O)C(=O)N1 (centres unmarked) [Example 192, 3-(5-(3-(4-fluorophenyl)azetidine-1-carbonyl)-1-oxoisoindolin-2-yl)piperidine-2,6-dione]"
5,100 to 1000,"O=C1CCC(N2Cc3cc(C(=O)N4CC(c5cccc(F)c5)C4)ccc3C2=O)C(=O)N1 (centres unmarked) [Example 193, 3-(5-(3-(3-fluorophenyl)azetidine-1-carbonyl)-1-oxoisoindolin-2-yl)piperidine-2,6-dione]"
6,100 to 1000,"O=C1CCC(N2Cc3cc(C(=O)N4CC(F)(c5ccc(F)cc5)C4)ccc3C2=O)C(=O)N1 (centres unmarked) [Example 170, 3-(5-(3-fluoro-3-(4-fluorophenyl)azetidine-1-carbonyl)-1-oxoisoindolin-2-yl)piperidine-2,6-dione]"
7,10 to 100,"O=C1CCC(N2Cc3cc(C(=O)N4CC5(CC(c6ccc(F)c(F)c6)C5)C4)ccc3C2=O)C(=O)N1 (centres unmarked) [Example 228, 3-(5-(6-(3,4-difluorophenyl)-2-azaspiro[3.3]heptane-2-carbonyl)-1-oxoisoindolin-2-yl)piperidine-2,6-dione]"
8,10 to 100,"O=C1CCC(N2Cc3cc(C(=O)N4CC5(CC(c6ccc(C(F)(F)F)cc6F)C5)C4)ccc3C2=O)C(=O)N1 (centres unmarked) [Example 246, 3-(5-(6-(2-fluoro-4-(trifluoromethyl)phenyl)-2-azaspiro[3.3]heptane-2-carbonyl)-1-oxoisoindolin-2-yl)piperidine-2,6-dione]"
9,10 to 100,"O=C1CCC(N2Cc3cc(C(=O)N4Cc5cc(Cl)cc(F)c5C4)ccc3C2=O)C(=O)N1 (centres unmarked) [Example 148, 3-(5-(6-chloro-4-fluoroisoindoline-2-carbonyl)-1-oxoisoindolin-2-yl)piperidine-2,6-dione]"
10,100 to 1000,"C[C@H]1c2cccc(F)c2CN1C(=O)c1ccc2c(c1)CN(C1CCC(=O)NC1=O)C2=O (stereo partly drawn) [Example 141, 3-(5-((S)-4-fluoro-1-methylisoindoline-2-carbonyl)-1-oxoisoindolin-2-yl)piperidine-2,6-dione]"
11,< 10,"C[C@H]1CN(C(=O)c2ccc3c(c2)CN(C2CCC(=O)NC2=O)C3=O)c2cc(F)ccc21 (stereo partly drawn) [Example 132, 3-(5-((R)-6-fluoro-3-methylindoline-1-carbonyl)-1-oxoisoindolin-2-yl)piperidine-2,6-dione]"
12,100 to 1000,"N#Cc1ccccc1C1CC2(C1)CN(C(=O)c1ccc3c(c1)CN(C1CCC(=O)NC1=O)C3=O)C2 (centres unmarked) [Example 239, 2-(2-(2-(2,6-dioxopiperidin-3-yl)-1-oxoisoindoline-5-carbonyl)-2-azaspiro[3.3]heptan-6-yl)benzonitrile]"
13,100 to 1000,"O=C1CCC(c2nc3ccc(C(=O)N4Cc5c(F)ccc(F)c5C4)cc3o2)C(=O)N1 (centres unmarked) [Example 177, 3-(6-(4,7-difluoroisoindoline-2-carbonyl)benzo[d]oxazol-2-yl)piperidine-2,6-dione]"
14,100 to 1000,"O=C1CCC(c2nc3ccc(C(=O)N4CC5(CC=C(F)CC5)C4)cc3o2)C(=O)N1 (centres unmarked) [Example 221, 3-(6-(7-fluoro-2-azaspiro[3.5]non-6-ene-2-carbonyl)benzo[d]oxazol-2-yl)piperidine-2,6-dione]"

# Source: patent US20260285872A1, “COMPOUNDS AND METHODS FOR DEGRADING GSPT1” (priority 2023, published 2026)
